According to patent US11518758B2, “Heteroarylaminopyrimidine amide autophagy inhibitors and methods of use thereof” (Deciphera Pharmaceuticals, LLC, priority 2019, dated 2022):
pIC50: −log10 of the molar value.

Tests used:
ULK2 kinase = molecular target: T1, ULK2 kinase (Homo sapiens, UniProt Q8IYT8); assay: Biochemical assay for ULK2 (coupled pyruvate kinase/lactate dehydrogenase assay); conditions: 9.7 nM ULK2 (Eurofins), myelin basic protein, 1 mM ATP; read-out: ULK2.2
T1 construct: purchased Eurofins 14-772
Procedure: Example 176. Biochemical Assay for ULK2
(§1) Activity of ULK2 kinase was determined spectroscopically using a coupled pyruvate kinase/lactate dehydrogenase assay that continuously monitors the ATP hydrolysis-dependent oxidation of NADH (e.g., Schindler et al. Science (2000) 289: 1938-1942). Assays were conducted in 384-well plates (100 uL final volume) using 9.7 nM ULK2 (Eurofins CAT #14-772), 0.25 mg/mL myelin basic protein, 1.5 units pyruvate kinase, 2.1 units lactate dehydrogenase, 1 mM phosphoenol pyruvate, 0.28 mM NADH and 1 mM ATP in assay buffer (100 mM Tris, pH 7.5, 15 mM MgCl2, 0.5 mM DTT, 0.1% octyl-glucoside, 0.002% (w/v) BSA, and 0.002% Triton X-100). Inhibition of ULK2 was measured by adding serial diluted test compound (final assay concentration of 1% DMSO). A decrease in absorption at 340 nm was monitored continuously for 6 hours at 30° C. on a multi-mode microplate reader (BioTek). The reaction rate was calculated using the 2-3 h time frame. The reaction rate at each concentration of compound was converted to percent inhibition using controls (i.e. reaction with no test compound and reaction with a known inhibitor) and IC50 values were calculated by fitting a four-parameter sigmoidal curve to the data using Prism (GraphPad software).

[1] = test system: phospho-Serine 318 ATG13 (pATG13), ULK kinase substrate, in A549 (KRAS mutant) cells; assay: pATG13 levels of mutant KRas A549 cells after treatment with ULK inhibitors in combination with trametinib (ELISA); format: cell-based, human; conditions: with 250 nM trametinib
Procedure: Example 177. Cellular Inhibition of ULK Kinase Substrate ATG13 Protein pATG13 Levels of Mutant KRas A549 Cells after Treatment with ULK Inhibitors in Combination with Trametinib
A549 (KRAS mutant) human lung cancer cells (6,000 cells/well) were added to a 384-well tissue-culture treated plate in 50 μL of pre-warmed DMEM medium supplemented with 10% characterized fetal bovine serum (Invitrogen, Carlsbad, Calif.), 100 units/mL penicillin G, and 100 μg/mL streptomycin and allowed to grow overnight at 37° C., 5% CO2, and 95% humidity. The following day, 10 μL of media containing trametinib or DMSO as a control was added to wells. The final concentration of trametinib in wells was 250 nM. A dose response of a test compound (0.6 μL per well) was added. DMSO (0.6 μL) was added to control wells. The plate was briefly shaken to mix wells and then incubated at 37° C. overnight. The next day, the media was aspirated and cells were washed with Dulbecco's Phosphate Buffered Saline (Gibco). Cells were lysed using MPER lysis buffer (Pierce, Rockford, Ill.) containing Halt Phosphatase and Protease Inhibitors (Pierce, Rockford, Ill.) and Phosphatase inhibitor cocktail 2 (Sigma, St. Louis, Mo.) at 4° C. for 10 minutes with shaking.
Cellular levels of phospho-Serine 318 ATG13 (pATG13) were measured via an ELISA method. Total ATG13 Antibody (Cell Signaling Cat #13273) was used to coat the wells. The plate was incubated at 4° C. overnight and washed with ELISA wash buffer (Biolegend Cat #421601). The wells were then blocked with assay diluent (Biolegend Cat #421203) for 1 hour at room temperature. Plate wells were washed with ELISA wash buffer. Cell lysate was added to wells and incubated at room temperature for 2 hours. Plate wells were washed with ELISA wash buffer. Biotinylated pS318-ATG13 antibody (Rockland Immunochemicals Cat #600-401-C49) was diluted in assay diluent and added to each well and incubated at room temperature for 1 hour. Plate wells were washed with ELISA wash buffer. Streptavidin linked to horseradish peroxidase (Thermo Fisher Cat #21140) was diluted in assay diluent and added to each well and incubated at room temperature for 1 hour. Plate wells were washed with ELISA wash buffer. High sensitivity TMB substrate (Biolegend Cat #421101) was added to each well and incubated at room temperature for 20 minutes. The reaction was stopped with 2N Sulfuric Acid. The plate was analyzed at on a plate reader measuring absorbance at 450 nm and 540 nm (background). Signal was calculated by first subtracting the background absorbance at 540 nm from the absorbance at 450 nm for each well. Next, the background corrected absorbance at 450 nm from blank wells was subtracted from test wells. Data was compared to control wells to determine % ATG13 phosphorylation. GraphPad Prism was used to calculate IC50 values.

ULK1 kinase = molecular target: T2, ULK1 kinase (Homo sapiens, UniProt O75385); assay: Biochemical assay for ULK1.2 (coupled pyruvate kinase/lactate dehydrogenase assay); conditions: 19 nM ULK1 (Eurofins), myelin basic protein, 1 mM ATP
T2 construct: purchased Eurofins 14-959
T2 sequence (O75385 with tags, fused parts or gaps): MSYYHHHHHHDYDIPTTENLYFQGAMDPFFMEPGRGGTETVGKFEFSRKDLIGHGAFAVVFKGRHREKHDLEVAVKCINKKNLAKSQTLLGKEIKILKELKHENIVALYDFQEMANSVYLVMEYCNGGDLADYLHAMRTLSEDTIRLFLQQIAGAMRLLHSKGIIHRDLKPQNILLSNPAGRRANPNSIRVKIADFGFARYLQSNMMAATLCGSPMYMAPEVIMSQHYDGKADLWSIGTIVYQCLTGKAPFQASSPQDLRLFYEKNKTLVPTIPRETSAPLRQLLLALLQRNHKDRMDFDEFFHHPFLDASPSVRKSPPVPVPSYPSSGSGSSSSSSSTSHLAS
Procedure: Example 174. Biochemical Assay for ULK1.2
as §1, with “ULK1” for “ULK2”, “19” for “9.7”, “#14-959),” for “#14-772),”

LRRK2 kinase = molecular target: T3, LRRK2 kinase (Homo sapiens, UniProt Q5S007); assay: Biochemical assay for LRRK2 (coupled pyruvate kinase/lactate dehydrogenase assay); conditions: 26.4 nM LRRK2 (residues 970-2528), 0.1 mM peptide substrate, 1 mM ATP
T3 construct: purchased Thermo Fisher
Procedure: Example 182. Biochemical Assay for LRRK2 (SEQ. ID NO. 4)
Activity of LRRK2 kinase was determined spectroscopically using a coupled pyruvate kinase/lactate dehydrogenase assay that continuously monitors the ATP hydrolysis-dependent oxidation of NADH (e.g., Schindler et al. Science (2000) 289: 1938-1942). Assays were conducted in 384-well plates (100 uL final volume) using 26.4 nM LRRK2 (Thermo Fisher), 0.1 mM peptide substrate (RLGRDKYKTLRQIRQ (SEQ ID NO: 6)), 1.5 units pyruvate kinase, 2.1 units lactate dehydrogenase, 1 mM phosphoenol pyruvate, 0.28 mM NADH and 1 mM ATP in assay buffer (100 mM Tris, pH 7.5, 15 mM MgCl2, 0.5 mM DTT, 0.004% (w/v) BSA, and 0.004% Triton X-100). Inhibition of LRRK2 was measured by adding serial diluted test compound (final assay concentration of 1% DMSO). A decrease in absorption at 340 nm was monitored continuously for 6 hours at 30° C. on a multi-mode microplate reader (BioTek). The reaction rate was calculated using the 2-3 h time frame. The reaction rate at each concentration of compound was converted to percent inhibition using controls (i.e. reaction with no test compound and reaction with a known inhibitor) and IC50 values were calculated using software routines in Prism (GraphPad software).

T3 sequence (Q5S007 with tags, fused parts or gaps): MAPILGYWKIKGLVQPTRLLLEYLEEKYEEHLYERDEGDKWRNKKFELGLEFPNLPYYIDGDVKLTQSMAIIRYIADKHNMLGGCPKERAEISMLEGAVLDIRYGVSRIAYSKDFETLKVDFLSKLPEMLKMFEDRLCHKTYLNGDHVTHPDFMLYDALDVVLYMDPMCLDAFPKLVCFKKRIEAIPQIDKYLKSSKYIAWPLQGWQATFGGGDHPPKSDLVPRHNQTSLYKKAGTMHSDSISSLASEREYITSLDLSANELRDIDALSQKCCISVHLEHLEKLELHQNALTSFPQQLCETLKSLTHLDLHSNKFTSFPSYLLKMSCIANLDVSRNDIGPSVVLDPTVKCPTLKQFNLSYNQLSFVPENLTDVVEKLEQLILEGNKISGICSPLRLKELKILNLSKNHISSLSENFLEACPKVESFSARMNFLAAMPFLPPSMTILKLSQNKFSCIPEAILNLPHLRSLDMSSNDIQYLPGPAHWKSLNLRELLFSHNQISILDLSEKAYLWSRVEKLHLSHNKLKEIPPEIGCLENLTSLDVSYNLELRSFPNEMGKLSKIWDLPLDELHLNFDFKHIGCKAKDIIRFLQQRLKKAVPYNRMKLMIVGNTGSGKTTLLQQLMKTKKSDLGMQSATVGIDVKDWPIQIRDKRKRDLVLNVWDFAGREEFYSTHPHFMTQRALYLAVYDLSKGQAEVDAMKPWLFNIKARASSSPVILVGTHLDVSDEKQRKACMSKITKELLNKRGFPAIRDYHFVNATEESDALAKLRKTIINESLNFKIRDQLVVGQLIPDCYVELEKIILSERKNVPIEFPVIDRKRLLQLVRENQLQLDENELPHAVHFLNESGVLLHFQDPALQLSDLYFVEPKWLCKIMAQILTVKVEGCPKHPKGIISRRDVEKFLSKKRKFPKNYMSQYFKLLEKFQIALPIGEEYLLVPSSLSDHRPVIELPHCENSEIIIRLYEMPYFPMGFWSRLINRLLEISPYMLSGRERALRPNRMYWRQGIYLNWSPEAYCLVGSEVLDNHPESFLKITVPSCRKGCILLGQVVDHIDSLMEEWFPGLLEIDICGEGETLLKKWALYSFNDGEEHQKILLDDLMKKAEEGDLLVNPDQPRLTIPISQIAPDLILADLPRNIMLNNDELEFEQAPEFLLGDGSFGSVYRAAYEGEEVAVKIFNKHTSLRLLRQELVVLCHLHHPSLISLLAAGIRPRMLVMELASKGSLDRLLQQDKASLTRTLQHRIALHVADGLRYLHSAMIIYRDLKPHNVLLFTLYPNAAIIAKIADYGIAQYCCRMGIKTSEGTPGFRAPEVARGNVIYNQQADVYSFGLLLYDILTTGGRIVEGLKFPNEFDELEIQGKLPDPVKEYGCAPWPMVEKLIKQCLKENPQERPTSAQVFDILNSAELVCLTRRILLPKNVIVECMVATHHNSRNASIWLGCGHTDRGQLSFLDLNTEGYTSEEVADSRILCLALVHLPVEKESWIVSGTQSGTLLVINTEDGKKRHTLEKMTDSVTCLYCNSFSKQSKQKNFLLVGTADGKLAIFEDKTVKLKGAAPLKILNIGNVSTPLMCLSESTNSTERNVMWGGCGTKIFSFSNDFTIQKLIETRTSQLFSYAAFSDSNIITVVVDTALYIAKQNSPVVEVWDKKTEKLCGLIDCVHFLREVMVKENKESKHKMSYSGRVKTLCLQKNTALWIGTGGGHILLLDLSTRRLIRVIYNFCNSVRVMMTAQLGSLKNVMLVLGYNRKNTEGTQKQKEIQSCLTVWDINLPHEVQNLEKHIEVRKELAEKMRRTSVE
T1 sequence (Q8IYT8 with tags, fused parts or gaps): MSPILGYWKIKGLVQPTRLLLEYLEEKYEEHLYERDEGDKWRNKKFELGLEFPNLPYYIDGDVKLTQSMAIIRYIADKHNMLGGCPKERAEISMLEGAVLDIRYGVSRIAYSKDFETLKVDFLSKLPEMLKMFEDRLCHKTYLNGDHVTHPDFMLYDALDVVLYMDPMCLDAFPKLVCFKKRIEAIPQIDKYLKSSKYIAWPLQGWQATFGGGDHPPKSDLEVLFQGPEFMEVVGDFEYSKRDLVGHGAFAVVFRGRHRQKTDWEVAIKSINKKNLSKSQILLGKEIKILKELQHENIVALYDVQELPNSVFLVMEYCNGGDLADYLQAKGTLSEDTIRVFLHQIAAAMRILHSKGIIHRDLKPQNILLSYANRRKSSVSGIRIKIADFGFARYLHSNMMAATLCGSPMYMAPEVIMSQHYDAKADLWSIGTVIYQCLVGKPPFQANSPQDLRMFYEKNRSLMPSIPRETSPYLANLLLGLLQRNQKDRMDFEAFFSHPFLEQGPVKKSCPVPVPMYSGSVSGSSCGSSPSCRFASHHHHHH

In the case of `Cc1nn(C2CCN(C3COC3)CC2)cc1Nc1ncc(C(F)(F)F)c(NCCCN2CCCCCC2=O)n1` [Example 91], the pIC50 (ULK2 kinase) was 6.30 to 7.00, the pIC50 [1] was 6.22 to 6.52 and the pIC50 (ULK1 kinase) was 7.60 to 9.00.
For `Cc1nn(C2CCN(C)CC2)cc1Nc1ncc(Br)c(NCCCN2CCCCC2=O)n1` [Example 51], the pIC50 (ULK2 kinase) was 7.00 to 7.60, the pIC50 [1] was under 6.22 and the pIC50 (ULK1 kinase) was 7.60 to 9.00.
Molecule `Cc1nn(C2CCNCC2)cc1Nc1ncc(C(F)(F)F)c(NCCCN2CCCCCC2=O)n1` [Example 83, 1-(3-((2-((3-methyl-1-(piperidin-4-yl)-1H-pyrazol-4-yl)amino)-5-(trifluoromethyl)pyrimidin-4-yl)amino)propyl)azepan-2-one] has a pIC50 (ULK2 kinase) of 7.60 to 9.00, a pIC50 [1] of 6.52 to 7.00 and a pIC50 (ULK1 kinase) of 7.60 to 9.00.
`Cc1nn(C2CCNCC2)cc1Nc1ncc(Cl)c(NCCCN2CCCCC2=O)n1` [Example 27] showed a pIC50 (ULK2 kinase) of 6.30 to 7.00, a pIC50 [1] of under 6.22 and a pIC50 (ULK1 kinase) of 7.00 to 7.60.
For `Cc1nn(C2CCN(C)CC2)cc1Nc1ncc(C(F)(F)F)c(NCCCN2CCCC2=O)n1` [Example 104], the pIC50 (ULK2 kinase) was 7.00 to 7.60, the pIC50 [1] was under 6.22 and the pIC50 (ULK1 kinase) was 7.00 to 7.60. For the same molecule, the pIC50 (LRRK2 kinase) was 6.22 to 6.52.
`Cc1nn(C2CCNCC2)cc1Nc1ncc(Cl)c(NCCCN2CCCCCC2=O)n1` [Example 86] showed a pIC50 (ULK2 kinase) of 6.30 to 7.00, a pIC50 [1] of under 6.22 and a pIC50 (ULK1 kinase) of 7.00 to 7.60.
`CN1CCC(n2cc(Nc3ncc(C4CC4)c(NCCCN4CCN(C)C4=O)n3)cn2)CC1` [Example 147] showed a pIC50 (ULK2 kinase) of under 6.30, a pIC50 (ULK1 kinase) of 6.30 to 7.00 and a pIC50 (LRRK2 kinase) of under 6.22.
In the case of `CN1CCC(n2cc(Nc3ncc(C(F)(F)F)c(NCCCN4CCCCCC4=O)n3)cn2)CC1` [Example 78], the pIC50 (ULK2 kinase) was 7.60 to 9.00, the pIC50 [1] was 7.00 to 8.00 and the pIC50 (ULK1 kinase) was 7.60 to 9.00.
With `CCc1nn(C2CCNCC2)cc1Nc1ncc(Br)c(NCCCN2CCCCC2=O)n1` [Example 41] the pIC50 (ULK2 kinase) was 6.30 to 7.00 and the pIC50 (ULK1 kinase) was 7.00 to 7.60.
`CCN1CC[C@@H](n2cc(Nc3ncc(C(F)(F)F)c(NCCCN4CCCCC4=O)n3)c(C)n2)C1` [Example 25] gave a pIC50 (ULK2 kinase) of 7.00 to 7.60, a pIC50 [1] of 7.00 to 8.00 and a pIC50 (ULK1 kinase) of 7.60 to 9.00.
`CN1CCC(n2cc(Nc3ncc(Cl)c(NCCCN4CCCCCC4=O)n3)cn2)CC1` [Example 81] showed a pIC50 (ULK2 kinase) of 7.60 to 9.00, a pIC50 [1] of 7.00 to 8.00 and a pIC50 (ULK1 kinase) of 7.60 to 9.00.
`Cc1nn(C2CCN(C)CC2)cc1Nc1ncc(Cl)c(NCCCN2CCCCCC2=O)n1` [Example 80, 1-(3-((5-chloro-2-((3-methyl-1-(1-methylpiperidin-4-yl)-1H-pyrazol-4-yl)amino)pyrimidin-4-yl)amino)propyl)azepan-2-one] gave a pIC50 (ULK2 kinase) of 6.30 to 7.00, a pIC50 [1] of 7.00 to 8.00 and a pIC50 (ULK1 kinase) of 7.60 to 9.00. For the same molecule, the pIC50 (LRRK2 kinase) was 6.52 to 7.00.
With `Cc1nn(C2CCNCC2)cc1Nc1ncc(C(F)(F)F)c(NCCCN2CCCC2=O)n1` [Example 103] the pIC50 (ULK2 kinase) was 7.00 to 7.60, the pIC50 [1] was under 6.22 and the pIC50 (ULK1 kinase) was 7.00 to 7.60.
With `O=C1CCCCCN1CCCNc1nc(Nc2cnn(C3CCNCC3)c2)ncc1C(F)(F)F` [Example 77] the pIC50 (ULK2 kinase) was 7.60 to 9.00, the pIC50 [1] was 6.52 to 7.00 and the pIC50 (ULK1 kinase) was 7.60 to 9.00.
`Cc1nn(C2CCNCC2)cc1Nc1ncc(Br)c(NCCCN2CCCCC2=O)n1` [Example 26] was tested, and the pIC50 (ULK2 kinase) was 7.00 to 7.60, the pIC50 [1] was under 6.22 and the pIC50 (ULK1 kinase) was 7.60 to 9.00. It also gave a pIC50 (LRRK2 kinase) of 6.22 to 6.52.
Molecule `CN1CCC(n2cc(Nc3ncc(C(F)(F)F)c(NCCCN4CCCC4=O)n3)cn2)CC1` [Example 166] has a pIC50 (ULK2 kinase) of 7.00 to 7.60, a pIC50 [1] of 6.52 to 7.00 and a pIC50 (ULK1 kinase) of 7.60 to 9.00.
In the case of `CN1CCC(n2cc(Nc3ncc(C4CC4)c(NCCCN4CCCCC4=O)n3)cn2)CC1` [Example 1], the pIC50 (ULK2 kinase) was under 6.30, the pIC50 (ULK1 kinase) was 7.00 to 7.60 and the pIC50 (LRRK2 kinase) was under 6.22.
For `CN1CCC(n2cc(Nc3ncc(Cl)c(NCCCN4CCCCC4=O)n3)cn2)CC1` [Example 2], the pIC50 (ULK2 kinase) was 7.00 to 7.60 and the pIC50 (ULK1 kinase) was 7.60 to 9.00.
`CC(C)CN1CC(n2cc(Nc3ncc(Cl)c(NCCCN4CCCC4=O)n3)cn2)C1` [Example 159] showed a pIC50 (ULK1 kinase) of under 6.30 and a pIC50 (LRRK2 kinase) of under 6.22.
Molecule `O=C1CCCCN1CCCNc1nc(Nc2cnn(C3CCNCC3)c2)ncc1Cl` [Example 4] has a pIC50 (ULK2 kinase) of 7.00 to 7.60, a pIC50 [1] of under 6.22 and a pIC50 (ULK1 kinase) of 7.60 to 9.00.
